# Laboratory results as given in patent US3962317A, “D-3,6-Diaminohexanoic acid 2-(carboxymethyl)-2-methylhydrazide, process of preparing and intermediates of said process” (priority 1974, dated 1976).
# Experiments:
# [1] = test system: Enterobacter sp. K-1972-1; assay: MIC, agar dilution (called standard agar well diffusion assay); format: cell-based; conditions: SP.K19721, nutrient agar, 37°C, 24 hours
# Procedure: (§1) In this assay, the minimal inhibitory concentration (MIC) was determined by using twofold dilutions of the compound in nutrient agar. One ml. of each dilution was placed in a sterile Petri dish; 9 ml. of nutrient agar was added to each dish. Five hour cultures of the indicated organism in Trypticase Soy Broth were diluted 10^^-2 in nutrient broth. This dilution of each culture was transferred to the surface of the plates by using a Steers replicating device. […] The MIC of D-3,6-diaminohexanoic acid 2-(carboxymethyl)-2 -methylhydrazide against the indicated organisms are set forth in Table I below.
# [2] = test system: Enterococcus (S. faecalis) Isenberg; assay: as above; format: cell-based; conditions: nutrient agar, 37°C, 24 hours
# Procedure: as §1
# [3] = test system: Escherichia coli K-1972-1; assay: as above; format: cell-based; conditions: K19721, nutrient agar, 37°C, 24 hours
# Procedure: as §1
# [4] = test system: Escherichia coli K-1972-2; assay: as above; format: cell-based; conditions: K19722, nutrient agar, 37°C, 24 hours
# Procedure: as §1
# Escherichia coli No. 311 = assay: as above; format: cell-based; conditions: nutrient agar, 37°C, 24 hours
# Procedure: as §1
# [5] = test system: Herellea vaginicola Hughes; assay: as above; format: cell-based; conditions: nutrient agar, 37°C, 24 hours
# Procedure: as §1
# [6] = test system: Herellea vaginicola Washington 885-863; assay: as above; format: cell-based; conditions: nutrient agar, 37°C, 24 hours
# Procedure: as §1
# Klebsiella pneumoniae AD [7] = assay: as above; format: cell-based; conditions: nutrient agar, 37°C, 24 hours
# Procedure: as §1
# [8] = test system: Klebsiella pneumoniae K-1972-2; assay: as above; format: cell-based; conditions: K19722, nutrient agar, 37°C, 24 hours
# Procedure: as §1
# [9] = test system: Proteus mirabilis K-1972-12; assay: as above; format: cell-based; conditions: K197212, nutrient agar, 37°C, 24 hours
# Procedure: as §1
# [10] = test system: Proteus mirabilis K-1972-16; assay: as above; format: cell-based; conditions: K197216, nutrient agar, 37°C, 24 hours
# Procedure: as §1
# [11] = test system: Proteus mirabilis No. 4361; assay: as above; format: cell-based; conditions: nutrient agar, 37°C, 24 hours
# Procedure: as §1
# Proteus vulgaris K-1972 = assay: as above; format: cell-based; conditions: K1972, nutrient agar, 37°C, 24 hours
# Procedure: as §1
# [12] = test system: Pseudomonas aeruginosa 12-4-4; assay: as above; format: cell-based; conditions: 1244, nutrient agar, 37°C, 24 hours
# Procedure: as §1
# [13] = test system: Pseudomonas aeruginosa PA7; assay: as above; format: cell-based; conditions: nutrient agar, 37°C, 24 hours
# Procedure: as §1
# [14] = test system: Salmonella enteritidis K-1972; assay: as above; format: cell-based; conditions: Salmonella enterica, nutrient agar, 37°C, 24 hours
# Procedure: as §1
# [15] = test system: Salmonella typhimurium K-1972; assay: as above; format: cell-based; conditions: Salmonella enterica, nutrient agar, 37°C, 24 hours
# Procedure: as §1
# [16] = test system: Serratia marcescens Finland; assay: as above; format: cell-based; conditions: nutrient agar, 37°C, 24 hours
# Procedure: as §1
# Serratia marcescens K132 = assay: as above; format: cell-based; conditions: nutrient agar, 37°C, 24 hours
# Procedure: as §1
# [17] = test system: Shigella flexneri (2a) RB; assay: as above; format: cell-based; conditions: nutrient agar, 37°C, 24 hours
# Procedure: as §1
# [18] = test system: Shigella flexneri (5) Citarella; assay: as above; format: cell-based; conditions: nutrient agar, 37°C, 24 hours
# Procedure: as §1
# [19] = test system: Staphylococcus aureus Jackson No. 4; assay: as above; format: cell-based; conditions: nutrient agar, 37°C, 24 hours
# Procedure: as §1
# [20] = test system: Staphylococcus aureus Morton No. 1169; assay: as above; format: cell-based; conditions: nutrient agar, 37°C, 24 hours
# Procedure: as §1
# Candida albicans E 83 = assay: Zone of inhibition, standard agar well diffusion assay; format: cell-based
# Procedure: as §1
# (§2) In another representative operation, the standard agar well diffusion assay was repeated with D-3,6-diaminohexanoic acid 2-(carboxymethyl)-2-methylhydrazide except that after incubation the zone of inhibition against the indicated organism is millimeters was determined.
# [21] = test system: Cryptococcus neoformans E 183; assay: as above; format: cell-based
# Procedure: as §1, §2
# [22] = test system: Enterobacter aerogenes 75; assay: as above; format: cell-based
# Procedure: as §1, §2
# Escherichia coli 311 [23] = assay: as above; format: cell-based
# Procedure: as §1, §2
# Klebsiella pneumoniae AD [24] = assay: as above; format: cell-based
# Procedure: as §1, §2
# [25] = test system: Microsporum canis ATCC 10214; assay: as above; format: cell-based
# Procedure: as §1, §2
# [26] = test system: Mycobacterium smegmatis ATCC 606; assay: as above; format: cell-based
# Procedure: as §1, §2
# [27] = test system: Proteus vulgaris ATCC 9484; assay: as above; format: cell-based
# Procedure: as §1, §2
# [28] = test system: Pseudomonas aeruginosa ATCC 10145; assay: as above; format: cell-based
# Procedure: as §1, §2
# [29] = test system: Salmonella typhosa ATCC 6539; assay: as above; format: cell-based
# Procedure: as §1, §2
# [30] = test system: Staphylococcus aureus Rose ATCC 14154; assay: as above; format: cell-based
# Procedure: as §1, §2
# [31] = test system: Trichophyton mentagrophytes E11; assay: as above; format: cell-based
# Procedure: as §1, §2
# [32] = test system: Trichophyton tonsurans NIH 662; assay: as above; format: cell-based
# Procedure: as §1, §2
# Proteus mirabilis 4671 = assay: Systemic lethal infection in mice, Proteus mirabilis 4671; format: in vivo, Charles River CD1 female mice; conditions: for Alive/Total Mice Tested 7 Days After Infection: 1 day prior to and immediately after infection
# Procedure: (§3) The infections were administered to the mice as follows:
# Proteus mirabilis 4671: intraperitoneal injection of a lethal dose consisting of 0.5 ml. of a 10^^-1.6 trypticase soy dilution of a 5 hour trypticase soy broth culture.
# (§4) The D-3,6-diaminohexanoic acid 2-(carboxymethyl)-2-methylhydrazide was administered as follows:
# Proteus mirabilis 4671: 0.5 ml. dose suspended in 0.2% aqueous agar was administered to groups of Charles River CD1 female mice, weighing 18-22 gm., 1 day prior to infection and then in a second dose immediately after infection at the levels indicated in Table III below.
# Escherichia coli 311 [33] = assay: Systemic lethal infection in mice, Escherichia coli 311; format: in vivo, Charles River CD1 female mice; conditions: for Alive/Total Mice Tested 7 Days After Infection: immediately after infection
# Procedure: as §3
# Escherichia coli 311: intraperitoneal infection of a lethal dose consisting of 0.5 ml. of a 10^^-3 trypticase soy dilution of a 5 hour trypticase soy broth culture.
# as §4
# Escherichia coli 311: 0.5 ml. dose suspended in 0.2% aqueous agar was administered to groups of Charles River CD1 female mice, weighing 18-22 gm., immediately after infection at the levels indicated in Table III below.
# [34] = test system: standard laboratory microorganisms; assay: Standard agar well diffusion assay against a variety of standard laboratory microorganisms; format: cell-based
smiles,measurement,setting,value
"CN(CC(=O)O)NC(=O)C[C@H](N)CCCN [D-3,6-diaminohexanoic acid 2-(carboxymethyl)-2-methylhydrazide]",MIC,[1],32 µg/mL
same,MIC,[2],> 128 µg/mL
same,MIC,[3],16 µg/mL
same,MIC,[4],16 µg/mL
same,MIC,Escherichia coli No. 311,16 µg/mL
same,MIC,[5],32 µg/mL
same,MIC,[6],32 µg/mL
same,MIC,Klebsiella pneumoniae AD [7],4 µg/mL
same,MIC,[8],32 µg/mL
same,MIC,[9],64 µg/mL
same,MIC,[10],64 µg/mL
same,MIC,[11],64 µg/mL
same,MIC,Proteus vulgaris K-1972,64 µg/mL
same,MIC,[12],64 µg/mL
same,MIC,[13],64 µg/mL
same,MIC,[14],32 µg/mL
same,MIC,[15],32 µg/mL
same,MIC,[16],64 µg/mL
same,MIC,Serratia marcescens K132,32 µg/mL
same,MIC,[17],4 µg/mL
same,MIC,[18],64 µg/mL
same,MIC,[19],64 µg/mL
same,MIC,[20],32 µg/mL
same,Zone of Inhibition,Candida albicans E 83,50 mm.
same,Zone of Inhibition,[21],10 mm.
same,Zone of Inhibition,[22],50 mm.
same,Zone of Inhibition,Escherichia coli 311 [23],25 mm.
same,Zone of Inhibition,Klebsiella pneumoniae AD [24],10 mm.
same,Zone of Inhibition,[25],250 mm.
same,Zone of Inhibition,[26],100 mm.
same,Zone of Inhibition,[27],25 mm.
same,Zone of Inhibition,[28],50 mm.
same,Zone of Inhibition,[29],25 mm.
same,Zone of Inhibition,[30],100 mm.
same,Zone of Inhibition,[31],100 mm.
same,Zone of Inhibition,[32],25 mm.
same,Alive/Total Mice Tested 7 Days After Infection,Proteus mirabilis 4671; 64 mg./kg. subcutaneous,5/5
same,Alive/Total Mice Tested 7 Days After Infection,Proteus mirabilis 4671; 128 mg./kg. subcutaneous,5/5
same,Alive/Total Mice Tested 7 Days After Infection,Proteus mirabilis 4671; 256 mg./kg. subcutaneous,5/5
same,in vivo activity against systemic lethal infection,Proteus mirabilis 4671; Proteus mirabilis infection in mice,controlled systemic lethal infections
same,Alive/Total Mice Tested 7 Days After Infection,Escherichia coli 311 [33]; 4 mg./kg. subcutaneous,0/5
same,Alive/Total Mice Tested 7 Days After Infection,Escherichia coli 311 [33]; 8 mg./kg. subcutaneous,0/5
same,Alive/Total Mice Tested 7 Days After Infection,Escherichia coli 311 [33]; 16 mg./kg. subcutaneous,0/5
same,Alive/Total Mice Tested 7 Days After Infection,Escherichia coli 311 [33]; 32 mg./kg. subcutaneous,3/5
same,Alive/Total Mice Tested 7 Days After Infection,Escherichia coli 311 [33]; 64 mg./kg. subcutaneous,5/5
same,in vivo activity against systemic lethal infection,Escherichia coli 311 [33]; Escherichia coli infection in mice,controlled systemic lethal infections
same,antibacterial and antifungal activity in vitro,[34],broad-spectrum antibacterial and antifungal activity in vitro
